Measurements published in patent US5695970A, “Glucan lyase producing 1,5-anhydrofructose” (priority 1992, dated 1997).
“Also recorded” adds a separate entry of the source.

What was measured:
[1] = test system: α-1,4-glucan lyase; assay: Substrate specificity of α-1,4-glucan lyase (release of 1,5-anhydrofructose, DNS method, 15 min); type: biochemical, Gracilariopsis lemaneiformis; settings: for substrate inhibition: higher substrate concentrations, 10 mg ml^-1 compared with 2 and 4 mg ml^-1
Experimental: When amylopectin was used as a substrate, the activity reached maximum 8 mg ml^-1 and then decreased slightly at 20 mg ml^-1. The same results were obtained with soluble starch and maltoheptaose. When maltotriose and maltose were used as substrates, the activity reached maximum at 2 mg ml^-1 and 6 mg ml^-1, respectively. Substrate inhibition became evident at higher concentrations, especially in the case of maltotriose. […] Generally, the inhibition degree decreased with the increase in DP number (Degree of Polymerization). When the activity measured at 10 mg ml^-1 was compared at 2 mg ml^-1 and 4 mg ml^-1, substrate inhibition could be clearly seen among the maltosaccharides of DP 3-5. In maltohexaose, the substrate inhibition was very low and was none in maltoheptaose. Among the maltosaccharides, maltotetraose and maltopentaose were the poorest substrates.
With PNPG1 (p-nitrophenyl-α-D-glucoside), the artificial substrate of α-glucosidase, reaction rate was the lowest.
Substrate Specificity of α-1,4-Glucan lyase.
The concentration of various substrates in the reaction mixture
was 10 mg ml^-1 except PNPG1, PNPG2, PNPG7, which was 2 mM.
The incubation time was 15 min. The degrading rate of maltoheptaose
was 84 μmol min^-1. mg^-1 protein.
(§1) The reaction mixture for the assay of α-1,4-glucan lyase was composed of 240 μl 62.5 mM Mops-NaOH containing 6 mg soluble starch (pH 6.2), the enzyme preparation and distilled water to a final volume of 300 μl. The reaction was carried out at 30° C. for 10-30 min. Liberated 1,5-anhydrofructose was determined by monitoring the absorbance at 546 nm after the addition of 3,5-dinitrosalicylic acid reagent. Soluble starch in the reaction mixture may be replaced by other substrates and the final substrate concentration may be varied as indicated in the text. The reaction time and enzyme concentration used in enzyme activity assay have been chosen to ensure the linearity of the reaction rate. One unit of α-1,4-glucan lyase activity is defined as the amount of enzyme which liberates 1μmol of 1,5-anhydrofructose min^-1 under the conditions described above.

[2] = test system: α-1,4-glucan lyase; assay: Elution of α-1,4-glucan lyase from the starch column by glucans; type: binding, Gracilariopsis lemaneiformis; settings: glucan 8 mg ml^-1; column 1 ml, 5 ml eluate; recovery with amylopectin = 100%
Experimental: In these experiments, as much as 5 times of the column volume was collected. At high pH, for example, 50 mM bicine-NaOH (pH 8.2), the binding of the enzyme onto the starch column was loose and it was eluted by subsequent washing with the same buffer. Neither ConA-Sepharose nor cycloheptaamylose-Sepharose 6B was effective for the purification of the enzyme because of low recovery.
The efficiency of various glucans (8 mg ml^-1) on the elution of
α-1,4-glucan lyase from the starch column. The column volume
was 1 ml and 5 ml eluate was pooled. The recovery of
α-1,4-glucan lyase eluted by amylopectin was used as 100%.
Gracilariopsis lemaneiformis (originally collected from China), 30 g, was sampled directly from the culture cylinder and was rinsed briefly with deionized water and blotted dry with paper tissue. The following operations were carried out at 0°-4° C. The thalli were cut to pieces with scissors and pulverized under liquid nitrogen. To 1 g alga powder was added 3 volumes of buffer A (50 mM citrate-NaOH, pH 6.6), filtered through two-layer cloth and centrifuged at 36,600×g for 10 min. The supernatant (cell-free extract) was loaded onto a starch column (4.1×1.5 cm) pre-equilibrated with buffer A. After loading, the column was extensively washed with 4 volumes of buffer A, volumes of buffer A containing 1M NaCl, 1 volume of buffer A, 1 volume of buffer B (50 mM imidazole-HCl, pH 6.6) in a flow speed of 24 ml h^-1. α-1,4-Glucan lyase was eluted with buffer B containing 10 mg ml^-1 amylopectin in a fraction size of 3.5 ml. To separate α-1,4-glucan lyase from the amylopectin, the active fractions of the eluate were pooled and applied onto a Q-Sepharose column (2.6×5 cm). The column was pre-equilibrated and later washed with buffer B. α-1,4-Glucan lyase was eluted with buffer B containing 0.7M NaCl. Active fractions were pooled and concentrated on a Centriprep CP30 (Amicon, USA) with a molecule weight cutoff of 30,000 and applied to a Sephacryl S-200 column (2.6×80 cm) pre-equilibrated and eluted with buffer A containing 0.2M NaCl. The flow speed was 60 ml h^-1 with a fraction size of 3.5 ml per tube. Active fractions were collected and concentrated again by using centriprep CP30.

[3] = test system: α-1,4-glucan lyase; assay: Reaction mode: complete degradation of substrates by the lyase and final products; type: biochemical, Gracilariopsis lemaneiformis; settings: for time needed for a complete degradation: enzyme 6 μg protein per ml, 30° C.
Experimental: In an enzyme concentration of 6 μg protein per ml, at 30° C., the time needed for a complete degradation of 1% maltose solution was 1 h, for 2% maltose solution, 3 h, for 5% maltose solution, 10-24 h, for 2% maltoheptaose, 10-24 h. This is in sharp contrast to many polysaccharides' depolymerization enzymes, whose reaction stops with the accumulation of products or with the decrease in substrate size.
When maltoheptaose was used as a substrate, the final products are 1,5-anhydrofructose and glucose and their ratio is 6:1. The intermediate products are a mixture of maltosaccharides with a DP number between 2-6 during the process of the reaction. With the increase of reaction time, the DP number of the maltosaccharides decreased and finally all the maltosaccharides disappeared. When maltose was used as a substrate, the ratio of 1,5-anhydrofructose to glucose was 1:1. With the increase of DP number, the yield of glucose decreased, while the yield of 1,5-anhydrofructose increased. When a linear chain of a α-1,4-glucan is long enough, the yield of 1,5-anhydrofructose can be nearly 100%.

[4] = test system: α-1,4-glucan lyase; assay: Inhibition studies of α-1,4-glucan lyase activity; type: biochemical, Gracilariopsis lemaneiformis; settings: for inhibition of the degradation of maltose: 3 mg/ml polysaccharide; for inhibition of enzymic activity: 0.1M
Experimental: as §1

[5] = test system: α-1,4-glucan lyase; assay: Substrate specificity of α-1,4-glucan lyase, long term incubation (24 h), continuation of Table IV; type: biochemical, Gracilariopsis lemaneiformis
Experimental: The incubation time was 24 h.
as §1

[6] = substrate 10 mg ml^-1, incubation 15 min

OC[C@H]1O[C@H](O[C@H]2[C@H](O)[C@@H](O)[C@@H](O[C@H]3[C@H](O)[C@@H](O)[C@@H](O[C@H]4[C@H](O)[C@@H](O)C(O)O[C@@H]4CO)O[C@@H]3CO)O[C@@H]2CO)[C@H](O)[C@@H](O)[C@@H]1O (stereo partly drawn) [Maltotetraose, maltotetraose]
substrate inhibition [1]: showed substrate inhibition | Activity (% of Maltoheptaose) [1, 6]: 27.8% | Elution Efficiency [2]: 65.7%

OC[C@H]1O[C@H](O[C@H]2[C@H](O)[C@@H](O)[C@H](O)O[C@@H]2CO)[C@H](O)[C@@H](O)[C@@H]1O [Maltose, maltose]
substrate concentration at which the activity reached maximum [1]: 6 mg/mL | substrate inhibition [1]: showed substrate inhibition | Activity (% of Maltoheptaose) [1, 6]: 66.7% | Elution Efficiency [2]: 56.4% | time needed for a complete degradation ([3]; 1% solution): 1 h | time needed for a complete degradation ([3]; 2% maltose solution): 3 h | time needed for a complete degradation ([3]; 5% solution): 10 to 24 h

amylopectin
substrate concentration at which the activity reached maximum [1]: 8 mg/mL | Activity (% of Maltoheptaose) [1, 6]: 94.1% | inhibition of the degradation of maltose ([4]; maltose as substrate): around 67% | type of inhibition ([4]; maltose as substrate): mixed competive/non-competive | inhibition of the algal enzyme (in words) ([4]; summary statement, maltose as substrate): inhibited | Elution Efficiency [2]: 100%

glycogen
Activity (% of Maltoheptaose) [1, 6]: 77.6% | inhibition of the degradation of maltose ([4]; maltose as substrate): ~47% | Elution Efficiency [2]: 87.1%

OC[C@H]1O[C@H](O[C@H]2[C@H](O)[C@@H](O)[C@@H](O[C@H]3[C@H](O)[C@@H](O)[C@@H](O[C@H]4[C@H](O)[C@@H](O)[C@@H](O[C@H]5[C@H](O)[C@@H](O)[C@@H](O[C@H]6[C@H](O)[C@@H](O)[C@@H](O[C@H]7[C@H](O)[C@@H](O)C(O)O[C@@H]7CO)O[C@@H]6CO)O[C@@H]5CO)O[C@@H]4CO)O[C@@H]3CO)O[C@@H]2CO)[C@H](O)[C@@H](O)[C@@H]1O (stereo partly drawn) [Maltoheptaose, maltoheptaose]
substrate inhibition [1]: none | Activity (% of Maltoheptaose) [1, 6]: 100.0% | degrading rate [1, 6]: 84 μmol min^-1. mg^-1 protein | Elution Efficiency [2]: 94.3% | time needed for a complete degradation ([3]; 2% maltoheptaose): 10 to 24 h

OC[C@H]1OC(O)[C@H](O)[C@@H](O)[C@@H]1O (stereo partly drawn) [Glucose, glucose]
inhibition of enzymic activity ([4]; amylopectin as substrate): no inhibition | inhibition of enzymic activity ([4]; maltose as substrate): around 22% | product inhibition: effect on enzyme reaction rate ([4]; products accumulating during the enzyme reaction): negligible effect | Elution Efficiency [2]: 0% | conversion of monosaccharide to 1,5-anhydrofructose by the lyase [3]: can not convert

pullulan
activity of the lyase with the substrate (in words) ([5]; long term incubation at 30° C.): no detectable activity; also recorded: little or no activity | Product released ([5]; substrate 4 mg ml^-1, 1.64 μg enzyme, 24 h): 0 nmol | inhibition of the degradation of maltose ([4]; maltose as substrate): did not inhibit | Elution Efficiency [2]: 32.3%
